Assay results published in US10426757B2, “Compositions and methods for promoting intestinal stem cell and/or non-stem progenitor cell function” (Whitehead Institute for Biomedical Research, priority 2014, dated 2019).
Entries after “also recorded” stand apart in the source; their conditions may differ.

Tested on: control diet-derived organoids
Assay: Ex vivo exposure of crypts and organoids to palmitic acid
Assay type: cell-based, mouse
Description: To examine whether PA, like a HFD, augmented the numbers of ISCs per primary organoid, we assayed the self-renewal capacity of the primary organoids in secondary cultures and assessed how PA-treatment influenced the frequency of ISCs.
Isolated crypts were counted and embedded in Matrigel™ (Corning 356231 growth factor reduced) at 5-10 crypts per μl and cultured in a modified form of medium as described previously.^14 Briefly, Advanced DMEM (Gibco) was supplemented by EGF 40 ng ml^−1 (R&D), Noggin 200 ng ml^−1 (Peprotech), R-spondin […](R&D or Sino Biological), N-acetyl-L-cysteine 1 μM (Sigma-Aldrich), N2 1X (Life Technologies), B27 1X (Life Technologies), Chiron 10 μM (Stemgent), Y-27632 dihydrochloride monohydrate 20 ng ml^−1 (Sigma-Aldrich). 25 μL drops of Matrigel™ with crypts were plated onto a flat bottom 48-well plate (Corning 3548) and allowed to solidify for 20-30 minutes in a 37° C. incubator. Three hundred microliters of crypt culture medium was then overlaid onto the Matrigel™, changed every three days, and maintained at 37° C. in fully humidified chambers containing 5% CO2. Clonogenicity (colony-forming efficiency) was calculated by plating 50-300 crypts and assessing organoid formation 3-7 days or as specified after initiation of cultures.
Isolated ISCs or progenitor cells were centrifuged for 5 minutes at 250 g, re-suspended in the appropriate volume of crypt culture medium (500-1,000 cells μl^−1), then seeded onto 25-30 μl Matrigel™ (Corning 356231 growth factor reduced) containing 1 μM jagged (Ana-Spec) in a flat bottom 48-well plate (Corning 3548). Alternatively, ISCs and Paneth cells were mixed after sorting in a 1:1 ratio, centrifuged, and then seeded onto Matrigel™. The Matrigel™ and cells were allowed to solidify before adding 300 μl of crypt culture medium. The crypt media was changed every second or third day. Organoid bodies were quantified on days 3, 7 and 10 of culture, unless otherwise specified. With respect to the study results presented in FIGS. 14-16, organoid bodies were quantified on day 3-4. […]

CCCCCCCCCCCCCCCC(=O)O [PA, palmitic acid]
primary organoid formation (clonogenic potential of crypts) (30 μM PA): did not change; also recorded: no effect | secondary organoid-forming activity (30 μM PA, four weeks): more than twofold increase; also recorded: more secondary organoid-forming activity | frequency of Lgr5-GFP^hi ISCs in organoids (four-week PA treatment): twofold increase; also recorded: increased the frequency
